From paper PMC9927415, “Tyrosine Kinase Inhibitors Display Potent Activity against Cryptosporidium parvum” (Microbiology Spectrum, 2022)

Legend:
Experiment in all cases: KINOMEscan competitive binding, whole panel
panel of 203 kinases [1] = molecular target: T1, panel of 203 kinases (Homo sapiens, UniProt O15146); conditions: 10 µM, n=1; kinase MUSK; read-out: Percent inhibition MUSK
T1 construct: purchased DiscoverX (KINOMEscan)
T1 sequence (O15146 24-869): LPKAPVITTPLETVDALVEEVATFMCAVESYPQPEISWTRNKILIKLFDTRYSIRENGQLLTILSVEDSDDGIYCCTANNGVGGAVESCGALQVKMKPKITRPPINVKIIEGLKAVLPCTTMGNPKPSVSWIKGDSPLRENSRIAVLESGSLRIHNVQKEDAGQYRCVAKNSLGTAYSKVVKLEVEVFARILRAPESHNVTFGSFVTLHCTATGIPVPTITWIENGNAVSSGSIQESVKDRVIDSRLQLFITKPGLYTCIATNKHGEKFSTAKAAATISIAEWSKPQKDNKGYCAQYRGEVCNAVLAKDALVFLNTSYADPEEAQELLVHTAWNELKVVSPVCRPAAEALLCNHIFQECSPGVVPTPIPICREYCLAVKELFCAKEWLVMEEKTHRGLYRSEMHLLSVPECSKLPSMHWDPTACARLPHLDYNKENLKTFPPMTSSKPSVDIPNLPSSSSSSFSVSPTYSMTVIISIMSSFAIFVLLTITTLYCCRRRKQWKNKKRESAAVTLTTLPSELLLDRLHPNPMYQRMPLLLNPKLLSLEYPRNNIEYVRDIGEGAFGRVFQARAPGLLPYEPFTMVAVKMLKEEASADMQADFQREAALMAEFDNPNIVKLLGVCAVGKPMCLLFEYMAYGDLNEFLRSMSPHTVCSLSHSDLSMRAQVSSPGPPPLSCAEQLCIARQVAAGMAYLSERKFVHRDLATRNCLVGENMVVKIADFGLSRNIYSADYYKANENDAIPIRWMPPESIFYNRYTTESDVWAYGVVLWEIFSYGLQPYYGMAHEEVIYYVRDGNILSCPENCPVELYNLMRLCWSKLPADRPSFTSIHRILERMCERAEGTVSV
Procedure, shortened: (§1)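 Kinases were expressed as T7 bacteriophage fusions, and test compounds competed with immobilized ATP-site probe ligands for binding. Kinase remaining bound to the solid-support probe was quantified, and values are given as percentage inhibition.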

panel of 203 kinases [2] = molecular target: T2, panel of 203 kinases (Homo sapiens, UniProt P28482); conditions: 10 µM, n=1; kinase ERK2; read-out: Percent inhibition ERK2
T2 construct: purchased DiscoverX (KINOMEscan)
Procedure, shortened: as §1

panel of 203 kinases [3] = molecular target: T3, panel of 203 kinases (Homo sapiens, UniProt P53671); conditions: 10 µM, n=1; kinase LIMK2; read-out: Percent inhibition LIMK2
T3 construct: purchased DiscoverX (KINOMEscan)
Procedure, shortened: as §1

panel of 203 kinases [4] = molecular target: T4, panel of 203 kinases (Homo sapiens, UniProt Q8NI60); conditions: 10 µM, n=1; kinase ADCK3; read-out: Percent inhibition ADCK3
T4 construct: purchased DiscoverX (KINOMEscan)
Procedure, shortened: as §1

panel of 203 kinases [5] = molecular target: T5, panel of 203 kinases (Homo sapiens, UniProt Q96D53); conditions: 10 µM, n=1; kinase ADCK4; read-out: Percent inhibition ADCK4
T5 construct: purchased DiscoverX (KINOMEscan)
T5 sequence (Q96D53 1-544): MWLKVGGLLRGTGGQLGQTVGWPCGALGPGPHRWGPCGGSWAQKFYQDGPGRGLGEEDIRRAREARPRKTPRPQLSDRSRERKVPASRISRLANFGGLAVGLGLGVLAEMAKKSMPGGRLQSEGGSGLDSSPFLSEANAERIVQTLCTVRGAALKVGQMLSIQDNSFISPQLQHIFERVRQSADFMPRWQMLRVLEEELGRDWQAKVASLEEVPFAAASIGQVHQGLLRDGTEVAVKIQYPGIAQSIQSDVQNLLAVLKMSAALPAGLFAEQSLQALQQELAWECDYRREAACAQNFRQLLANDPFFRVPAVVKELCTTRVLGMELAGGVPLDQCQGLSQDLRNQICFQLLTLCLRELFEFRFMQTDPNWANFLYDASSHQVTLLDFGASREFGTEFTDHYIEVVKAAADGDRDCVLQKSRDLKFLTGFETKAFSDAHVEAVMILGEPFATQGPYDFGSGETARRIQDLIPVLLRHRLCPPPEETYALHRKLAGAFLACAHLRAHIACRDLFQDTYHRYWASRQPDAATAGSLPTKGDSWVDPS
Procedure, shortened: as §1

panel of 203 kinases [6] = molecular target: T6, panel of 203 kinases (Homo sapiens, UniProt Q9H1R3); conditions: 10 µM, n=1; kinase MYLK2; read-out: Percent inhibition MYLK2
T6 construct: purchased DiscoverX (KINOMEscan)
Procedure, shortened: as §1

T4 sequence (Q8NI60 163-647): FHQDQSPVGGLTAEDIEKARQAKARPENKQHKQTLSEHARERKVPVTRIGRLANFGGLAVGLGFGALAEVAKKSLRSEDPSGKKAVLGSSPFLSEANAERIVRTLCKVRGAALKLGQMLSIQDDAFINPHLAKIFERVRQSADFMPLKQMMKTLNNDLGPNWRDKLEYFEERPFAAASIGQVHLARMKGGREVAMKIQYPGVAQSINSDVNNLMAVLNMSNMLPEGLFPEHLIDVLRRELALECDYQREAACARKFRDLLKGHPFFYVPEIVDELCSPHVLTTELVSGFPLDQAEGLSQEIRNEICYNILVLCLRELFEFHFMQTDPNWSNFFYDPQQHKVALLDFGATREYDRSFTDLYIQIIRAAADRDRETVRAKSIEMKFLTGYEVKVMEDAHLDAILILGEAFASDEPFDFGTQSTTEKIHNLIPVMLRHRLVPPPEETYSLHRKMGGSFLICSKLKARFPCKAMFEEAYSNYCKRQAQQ
T6 sequence (Q9H1R3 whole entry): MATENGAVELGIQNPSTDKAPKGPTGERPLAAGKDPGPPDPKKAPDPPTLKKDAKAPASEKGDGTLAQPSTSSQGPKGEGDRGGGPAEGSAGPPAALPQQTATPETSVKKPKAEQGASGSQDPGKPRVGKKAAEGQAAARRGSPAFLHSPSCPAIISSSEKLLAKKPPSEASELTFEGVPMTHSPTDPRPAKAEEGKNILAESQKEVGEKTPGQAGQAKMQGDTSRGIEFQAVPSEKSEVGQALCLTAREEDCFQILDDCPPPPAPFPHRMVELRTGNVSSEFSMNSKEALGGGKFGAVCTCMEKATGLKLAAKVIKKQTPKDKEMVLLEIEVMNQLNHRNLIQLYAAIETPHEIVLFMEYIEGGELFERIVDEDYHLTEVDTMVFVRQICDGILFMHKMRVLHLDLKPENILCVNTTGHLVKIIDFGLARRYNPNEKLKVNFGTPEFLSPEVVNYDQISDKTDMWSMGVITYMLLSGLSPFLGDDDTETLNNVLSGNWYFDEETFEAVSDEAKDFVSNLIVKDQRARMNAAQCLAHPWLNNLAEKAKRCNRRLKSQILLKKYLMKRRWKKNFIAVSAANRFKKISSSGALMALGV
T2 sequence (P28482 whole entry): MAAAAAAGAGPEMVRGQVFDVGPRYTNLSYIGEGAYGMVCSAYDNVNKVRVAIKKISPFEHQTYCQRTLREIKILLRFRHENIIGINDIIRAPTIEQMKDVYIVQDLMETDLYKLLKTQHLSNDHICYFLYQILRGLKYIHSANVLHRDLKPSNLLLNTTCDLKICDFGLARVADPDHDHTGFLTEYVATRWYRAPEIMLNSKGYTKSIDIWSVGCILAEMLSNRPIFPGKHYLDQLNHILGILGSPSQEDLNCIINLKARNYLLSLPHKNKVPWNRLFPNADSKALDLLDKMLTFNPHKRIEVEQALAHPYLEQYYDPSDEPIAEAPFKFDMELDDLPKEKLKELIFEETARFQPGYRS
T3 sequence (P53671 whole entry): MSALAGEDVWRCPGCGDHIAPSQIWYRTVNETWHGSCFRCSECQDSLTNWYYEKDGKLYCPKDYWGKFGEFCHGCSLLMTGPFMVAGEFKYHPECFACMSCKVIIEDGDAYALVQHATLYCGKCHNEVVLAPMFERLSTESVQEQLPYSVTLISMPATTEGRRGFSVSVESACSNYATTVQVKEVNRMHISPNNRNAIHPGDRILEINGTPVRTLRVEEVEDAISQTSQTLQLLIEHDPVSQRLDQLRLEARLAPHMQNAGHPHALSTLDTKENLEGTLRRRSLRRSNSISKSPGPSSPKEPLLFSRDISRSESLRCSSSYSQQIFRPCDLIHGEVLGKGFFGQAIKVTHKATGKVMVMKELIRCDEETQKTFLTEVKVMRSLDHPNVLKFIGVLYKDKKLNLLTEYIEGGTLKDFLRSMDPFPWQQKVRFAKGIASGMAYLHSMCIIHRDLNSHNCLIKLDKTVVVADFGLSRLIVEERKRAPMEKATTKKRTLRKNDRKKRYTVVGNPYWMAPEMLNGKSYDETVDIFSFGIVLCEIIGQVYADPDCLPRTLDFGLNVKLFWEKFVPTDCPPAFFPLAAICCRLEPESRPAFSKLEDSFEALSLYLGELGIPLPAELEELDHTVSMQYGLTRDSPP

With `CN1CCN(c2ccc(Nc3nccc(-c4cnn5ncccc45)n3)cc2C#N)CC1` [Compound 1] the inhibition at 10 µM (panel of 203 kinases [1]) was 98.8%, the inhibition at 10 µM (panel of 203 kinases [2]) was 100% and the inhibition at 10 µM (panel of 203 kinases [3]) was 100%. The inhibition at 10 µM (panel of 203 kinases [4]) was 93.7%, the inhibition at 10 µM (panel of 203 kinases [5]) was 98.6% and the inhibition at 10 µM (panel of 203 kinases [6]) was 96.8%.

For `COc1ccc(Nc2nccc(-c3cnn4ncccc34)n2)cc1` [Compound 2], the inhibition at 10 µM (panel of 203 kinases [1]) was 74.8%, the inhibition at 10 µM (panel of 203 kinases [2]) was 99.2% and the inhibition at 10 µM (panel of 203 kinases [3]) was 88%. For the same compound, the inhibition at 10 µM (panel of 203 kinases [4]) was 99.5%, the inhibition at 10 µM (panel of 203 kinases [5]) was 94.5% and the inhibition at 10 µM (panel of 203 kinases [6]) was 80.5%.

For `Cc1ccc(O)cc1Nc1ccnc(Nc2cccc(C(N)=O)c2)n1` [Compound 3], the inhibition at 10 µM (panel of 203 kinases [1]) was 0%, the inhibition at 10 µM (panel of 203 kinases [2]) was 0% and the inhibition at 10 µM (panel of 203 kinases [3]) was 96.6%. The inhibition at 10 µM (panel of 203 kinases [4]) was 0%, the inhibition at 10 µM (panel of 203 kinases [5]) was 100% and the inhibition at 10 µM (panel of 203 kinases [6]) was 83.2%.

For `Cc1ccc(O)cc1N(C)c1ccnc(Nc2cccc(S(N)(=O)=O)c2)n1` [Compound 4], the inhibition at 10 µM (panel of 203 kinases [1]) was 0%, the inhibition at 10 µM (panel of 203 kinases [2]) was 64% and the inhibition at 10 µM (panel of 203 kinases [3]) was 96%. It also gave an inhibition at 10 µM (panel of 203 kinases [4]) of 91.1%, an inhibition at 10 µM (panel of 203 kinases [5]) of 100% and an inhibition at 10 µM (panel of 203 kinases [6]) of 0%.

`Fc1cccc(COc2ccc(Nc3ncnc4c3CN(CCN3CCOCC3)CC4)cc2Cl)c1` [Compound 6] gave an inhibition at 10 µM (panel of 203 kinases [1]) of 0%, an inhibition at 10 µM (panel of 203 kinases [2]) of 0% and an inhibition at 10 µM (panel of 203 kinases [3]) of 0%. For the same compound, the inhibition at 10 µM (panel of 203 kinases [4]) was 0%, the inhibition at 10 µM (panel of 203 kinases [5]) was 0% and the inhibition at 10 µM (panel of 203 kinases [6]) was 0%.

Compound `COc1cc(Nc2nccc(-c3sc(N)nc3-c3cccc(NC(=O)c4c(F)cccc4F)c3)n2)cc(OC)c1OC` [Compound 7] has an inhibition at 10 µM (panel of 203 kinases [1]) of 97.2%, an inhibition at 10 µM (panel of 203 kinases [2]) of 100% and an inhibition at 10 µM (panel of 203 kinases [3]) of 100%. It also gave an inhibition at 10 µM (panel of 203 kinases [4]) of 100%, an inhibition at 10 µM (panel of 203 kinases [5]) of 100% and an inhibition at 10 µM (panel of 203 kinases [6]) of 97%.

Compound `C[C@@H](Oc1cc(-c2cnc3ccccn23)sc1C(N)=O)c1ccccc1Cl` [Compound 8] has an inhibition at 10 µM (panel of 203 kinases [1]) of 0%, an inhibition at 10 µM (panel of 203 kinases [2]) of 80.6% and an inhibition at 10 µM (panel of 203 kinases [3]) of 0%. It also gave an inhibition at 10 µM (panel of 203 kinases [4]) of 0%, an inhibition at 10 µM (panel of 203 kinases [5]) of 0% and an inhibition at 10 µM (panel of 203 kinases [6]) of 66.5%.

In the case of `c1ccc(COc2cccc(-c3ccnc4[nH]ccc34)c2)cc1` [Compound 9], the inhibition at 10 µM (panel of 203 kinases [1]) is reported as 0%, the inhibition at 10 µM (panel of 203 kinases [2]) is reported as 0% and the inhibition at 10 µM (panel of 203 kinases [3]) is reported as 0%. For the same compound, the inhibition at 10 µM (panel of 203 kinases [4]) was 0%, the inhibition at 10 µM (panel of 203 kinases [5]) was 0% and the inhibition at 10 µM (panel of 203 kinases [6]) was 0%.

`Clc1ccc(Nc2ncc(-c3ccccc3)s2)cc1` [Compound 10] gave an inhibition at 10 µM (panel of 203 kinases [1]) of 0%, an inhibition at 10 µM (panel of 203 kinases [2]) of 0% and an inhibition at 10 µM (panel of 203 kinases [3]) of 0%. For the same compound, the inhibition at 10 µM (panel of 203 kinases [4]) was 0%, the inhibition at 10 µM (panel of 203 kinases [5]) was 0% and the inhibition at 10 µM (panel of 203 kinases [6]) was 0%.

For `Nc1ncc2c(-c3ccncc3)c[nH]c2n1` [Compound 11], the inhibition at 10 µM (panel of 203 kinases [1]) was 93.9%, the inhibition at 10 µM (panel of 203 kinases [2]) was 0% and the inhibition at 10 µM (panel of 203 kinases [3]) was 0%. For the same compound, the inhibition at 10 µM (panel of 203 kinases [4]) was 0%, the inhibition at 10 µM (panel of 203 kinases [5]) was 0% and the inhibition at 10 µM (panel of 203 kinases [6]) was 84.9%.
